System: K562 cells
Experiment: NK cell cytotoxicity assay, K562 target cells
Type: cell-based
Settings: 4 hours; NK cells overnight 10 ng/mL IL-15 only or 7 day IL-15 + 5 μM CHIR99021
Method: NK Cell Cytotoxicity Assay: Cytotoxicity was determined using a flow cytometry based method based on a previously published method (Kim, et al. J Immunol Methods. 2007 Aug. 31; 325(1-2): 51-66). NK cells were co-cultured with e450-proliferation dye-labelled targets for 4 hours. CellEvent™ Caspase-3/7 Green Flow Cytometry Assay Kit (Lifer Technologies) was used to assay for cell death among target cells, and samples were read on a BD LSRFortessa cytometer. Killing of SKOV-3 targets was quantified using the Incucyte Zoom instrument. SKOV-3 cells were transiently transduced with NucLight-Red BacMam reagent (Essen Biosciences) and co-cultured with the indicated NK cell populations for 74 hours, with images taken on two hour intervals. Caspase 3/7 activity was monitored to indicate target cells undergoing apoptosis using the CellEvent™ Caspase-3/7 Green Detection Reagent. The number of target cells was normalized to SKOV-3 cells cultured alone, and targets undergoing apoptosis were quantified based on caspase 3/7 activity.
The ability of GSK3 inhibition to enhance cytotoxicity of NK cells isolated directly from donors was assessed using in vitro killing assays. […] depleted PBMC population was treated overnight with 10 ng/mL IL-15 only (primed), or a 7 day culture combination of 10 ng/mL IL-15 and 5 μM CHIR99021. The target cells for the killing assays included K562 cells, CD20+ Raji cells, HER2+ SKOV3 cells and HER2+A549 cells. The E:T (Effector:Target) ratio applied to each assay ranged from 0.1, 0.5, 1, 5 to 10. After the target cells were incubated with the differently treated NK cells for 4 hours, the respective percentage of specific killing (target cell lysis) was calculated. […] Raji cells are less prone to NK mediated cytotoxicity.
The ability of STING agonist to enhance cytotoxicity of GSK3i multiday modulated NK cells was assessed using in vitro killing assays. […]

Cc1c[nH]c(-c2cnc(NCCNc3ccc(C#N)cn3)nc2-c2ccc(Cl)cc2Cl)n1 [CHIR99021]
E:T50 (E:T ratio when there is 50% of target cell lysis), K562 killing assay: about 1
